Measurements from publication PMC9250534, “Synthesis and direct assay of large macrocycle diversities by combinatorial late-stage modification at picomole scale” (Nature Communications, 2022).
Numbered stars: 1 amine (or outer) side, 2 acyl side, 3 side chain; on linkers, the order of the positions; unused ones are H or OH. Bridge positions count the residues as written; N and C are the ends. Square brackets hold non-standard residues; d marks the D form. Peptide text beside a SMILES is read from it. * marks the point of attachment. 2Thenoyl(5-Cl) = O=C(c1ccc(Cl)s1)*; Cysteamide = C(CS[*:3])N[*:1]; Mpa = O=C(O)CCS

Biological target: T1, thrombin (Homo sapiens, UniProt P00734)
T1 construct: consists of two polypeptide chains of 36 (light chain) and 259 amino acid
Experiment: Thrombin inhibition screen of crude macrocycle reactions (residual thrombin activity, fluorogenic substrate Z-Gly-Gly-Arg-AMC)
Format: biochemical
Conditions: 10 µM macrocycle concentration; for percent residual thrombin activity: crude reactions, Library 1a-l, scaffold AA1-AA2-AA3 combined with 1-16 or '-'; for % thrombin activity, Original screen / % thrombin activity, Repeat screen: macrocycles containing acid 14, crude reaction; for % thrombin activity, Repeat screen: replicate reaction and screen
Method in brief: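 Residual activity was measured as the AMC release rate after adding 50 μM Z-Gly-Gly-Arg-AMC. This followed a 10-min room-temperature preincubation of 2 nM thrombin with 10 μM single macrocycles in pH 7.4 Tris buffer (0.6% DMSO). Percent inhibition was taken against the mean slope of DMSO controls.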

Row | SMILES | percent residual thrombin activity [%] | % thrombin activity, Original screen [%] | % thrombin activity, Repeat screen [%]
1 | O=C1CCSSCCNC(=O)[C@H](Cc2ccc(O)cc2)NC(=O)[C@H](CCCNC(=O)COc2ccccc2)NC(=O)C2(CC2)CN1 [B6-D2-Y/13] | 105.408 |  | 
2 | O=C1CCSSCCNC(=O)[C@H](Cc2ccc(O)cc2)NC(=O)[C@H](CCCNC(=O)c2ccc(Cl)s2)NC(=O)C2(CC2)CN1 [B6-D2-Y/14] | 95.7216 |  | 
3 | O=C1CCSSCCNC(=O)[C@H](CCCCNC(=O)c2ccccc2)NC(=O)[C@H](Cc2ccc(O)cc2)NC(=O)C2(CC2)CN1 [B6-Y-D1/1] | 104.596 |  | 
4 | O=C1CCSSCCNC(=O)[C@H](CCCCNC(=O)c2cnccn2)NC(=O)[C@H](Cc2ccc(O)cc2)NC(=O)C2(CC2)CN1 [B6-Y-D1/2] | 106.813 |  | 
5 | COc1ccc(C(=O)NCCCC[C@@H]2NC(=O)[C@H](Cc3ccc(O)cc3)NC(=O)C3(CC3)CNC(=O)CCSSCCNC2=O)cn1 [B6-Y-D1/10] | 104.034 |  | 
6 | O=C1CCSSCCNC(=O)[C@H](CCCCNC(=O)c2c[nH]c(=O)[nH]c2=O)NC(=O)[C@H](Cc2ccc(O)cc2)NC(=O)C2(CC2)CN1 [B6-Y-D1/11] | 105.574 |  | 
7 | O=C1CCSSCCNC(=O)[C@H](CCCCNC(=O)Cc2c[nH]c3ccccc23)NC(=O)[C@H](Cc2ccc(O)cc2)NC(=O)C2(CC2)CN1 [B6-Y-D1/12] | 101.278 |  | 
8 | O=C1CCSSCCNC(=O)[C@H](CCCCNC(=O)COc2ccccc2)NC(=O)[C@H](Cc2ccc(O)cc2)NC(=O)C2(CC2)CN1 [B6-Y-D1/13] | 106.992 |  | 
9 | Cc1nnsc1C(=O)NCCCC[C@@H]1NC(=O)[C@H](Cc2ccc(O)cc2)NC(=O)C2(CC2)CNC(=O)CCSSCCNC1=O [B6-Y-D1/15] | 105.617 |  | 
10 | O=C1CCSSCCNC(=O)[C@H](CCCCNC(=O)c2ccco2)NC(=O)[C@H](Cc2ccc(O)cc2)NC(=O)C2(CC2)CN1 [B6-Y-D1/16] | 103.228 |  | 
11 | NCCCC[C@@H]1NC(=O)[C@H](Cc2ccc(O)cc2)NC(=O)C2(CC2)CNC(=O)CCSSCCNC1=O [B6-Y-D1/-] | 104.679 |  | 
12 | O=C1CNC(=O)[C@@H]2CCCN2C(=O)[C@@H](NC(=O)c2ccc(Cl)s2)CSSCCNC(=O)[C@H](Cc2ccccc2)N1 [C B1 G F] ({2Thenoyl(5-Cl)}-CPGF-Cysteamide; disulfide 1-C) |  | 91.5 | 96.1
13 | O=C1CNC(=O)[C@H](Cc2ccc(O)cc2)NC(=O)[C@@H]2CCCN2C(=O)[C@@H](NC(=O)c2ccc(Cl)s2)CSSCCN1 [C B1 Y G] ({2Thenoyl(5-Cl)}-CPYG-Cysteamide; disulfide 1-C) |  | 98.5 | 102.3
14 | CC[C@H](C)[C@@H]1NC(=O)CNC(=O)CCNC(=O)[C@@H](NC(=O)c2ccc(Cl)s2)CSSCCNC1=O [C B2 G I] |  | 110.0 | 114.7
15 | O=C1CCNC(=O)[C@@H](NC(=O)c2ccc(Cl)s2)CSSCCNC(=O)[C@@H](CO)NC(=O)CN1 [C B2 G s] |  | 112.4 | 112.3
16 | O=C1CNC(=O)c2ccc(cc2)CNC(=O)[C@@H](NC(=O)c2ccc(Cl)s2)CSSCCNC(=O)[C@H](Cc2cnc[nH]2)N1 [C B3 G H] |  | 103.1 | 116.7
17 | CC[C@H](C)[C@@H]1NC(=O)c2ccc(cc2)CNC(=O)[C@@H](NC(=O)c2ccc(Cl)s2)CSSCCNC(=O)CNC1=O [C B3 I G] |  | 106.0 | 113.6
18 | CC(C)C1NC(=O)C2CCCN(C2)C(=O)C(NC(=O)c2ccc(Cl)s2)CSSCCNC(=O)CNC1=O (centres unmarked) [C B4 V G] |  | 107.3 | 115.5
19 | CC(C)C[C@@H]1NC(=O)C2(CC2)CNC(=O)CNC(=O)[C@@H](NC(=O)c2ccc(Cl)s2)CSSCCNC1=O [C G B6 L] |  | 109.3 | 114.8
20 | O=C1CNC(=O)[C@@H](NC(=O)c2ccc(Cl)s2)CSSCCNC(=O)c2ccc(cc2)CNC(=O)[C@@H](CO)N1 [C G s B3] |  | 93.7 | 99.7
21 | CC(C)C1NC(=O)C(NC(=O)c2ccc(Cl)s2)CSSCCNC(=O)c2cccc(c2)CNC(=O)CNC1=O (centres unmarked) [C v G B5] |  | 111.1 | 111.8
22 | CC1NC(=O)C2CCCN2C(=O)C(CCCCNC(=O)c2ccc(Cl)s2)NC(=O)CCSSCCNC1=O (centres unmarked) [D1-B1-a/14] ([Mpa]K(2Thenoyl(5-Cl))PA-Cysteamide; disulfide 1-C; configuration not given here) | 96.3758 |  | 

The next lines start with the values.

Row | percent residual thrombin activity [%] | % thrombin activity, Original screen [%] | % thrombin activity, Repeat screen [%] | SMILES
23 | 109.951 |  |  | O=C1CCSSCCNC(=O)[C@@H](Cc2ccc(O)cc2)NC(=O)CCNC(=O)[C@H](CCCCNC(=O)c2c[nH]c(=O)cn2)N1 [D1-B2-y/9]
24 | 108.421 |  |  | COc1ccc(C(=O)NCCCC[C@@H]2NC(=O)CCSSCCNC(=O)[C@@H](Cc3ccc(O)cc3)NC(=O)CCNC2=O)cn1 [D1-B2-y/10]
25 | 114.281 |  |  | O=C1CCSSCCNC(=O)[C@@H](Cc2ccc(O)cc2)NC(=O)CCNC(=O)[C@H](CCCCNC(=O)c2ccco2)N1 [D1-B2-y/16]
26 | 103.332 |  |  | CC(C)CC(=O)NCCCC[C@@H]1NC(=O)CCSSCCNC(=O)[C@H](CO)NC(=O)c2ccc(cc2)CNC1=O [D1-B3-S/8]
27 | 105.178 |  |  | O=C1CCSSCCNC(=O)[C@H](CO)NC(=O)c2ccc(cc2)CNC(=O)[C@H](CCCCNC(=O)c2c[nH]c(=O)[nH]c2=O)N1 [D1-B3-S/11]
28 | 103.115 |  |  | Cc1nnsc1C(=O)NCCCC[C@@H]1NC(=O)CCSSCCNC(=O)[C@H](CO)NC(=O)c2ccc(cc2)CNC1=O [D1-B3-S/15]
29 | 108.143 |  |  | CC(C)CC(=O)NCCCC[C@@H]1NC(=O)CCSSCCNC(=O)[C@@H](Cc2ccc(O)cc2)NC(=O)[C@H]2CCCN(C2)C1=O [D1-B4-y/8]
30 | 105.223 |  |  | O=C1CCSSCCNC(=O)C(Cc2ccc(O)cc2)NC(=O)C2CCCN(C2)C(=O)C(CCCCNC(=O)c2c[nH]c(=O)[nH]c2=O)N1 (centres unmarked) [D1-B4-y/11]
31 | 103.012 |  |  | O=C(Cc1c[nH]c2ccccc12)NCCCCC1NC(=O)CCSSCCNC(=O)C(Cc2ccc(O)cc2)NC(=O)C2CCCN(C2)C1=O (centres unmarked) [D1-B4-y/12]
32 | 108.72 |  |  | Cc1nnsc1C(=O)NCCCC[C@@H]1NC(=O)CCSSCCNC(=O)[C@@H](Cc2ccc(O)cc2)NC(=O)[C@H]2CCCN(C2)C1=O [D1-B4-y/15]
33 | 110.104 |  |  | NCCCC[C@@H]1NC(=O)CCSSCCNC(=O)[C@H]2CCCN(C2)C(=O)[C@H](Cc2ccccc2)NC1=O [D1-F-B4/-]
34 | 113.964 |  |  | O=C1CCSSCCNC(=O)C2(CC2)CNC(=O)[C@H](Cc2c[nH]cn2)NC(=O)[C@H](CCCCNC(=O)c2cnccn2)N1 [D1-H-B6/2]
35 | 113.747 |  |  | Cc1nnsc1C(=O)NCCCC[C@@H]1NC(=O)CCSSCCNC(=O)C2(CC2)CNC(=O)[C@H](Cc2cnc[nH]2)NC1=O [D1-H-B6/15]
36 | 116.392 |  |  | NCCCC[C@@H]1NC(=O)CCSSCCNC(=O)C2(CC2)CNC(=O)[C@H](Cc2cnc[nH]2)NC1=O [D1-H-B6/-]
37 | 106.199 |  |  | CC[C@H](C)[C@@H]1NC(=O)[C@H](CCCCNC(=O)COc2ccccc2)NC(=O)CCSSCCNC(=O)C2(CC2)CNC1=O [D1-I-B6/13]
